Data published in patent US6962912B2, “Substituted pyrazolo[4,3-e]diazepines, pharmaceutical compositions containing them, use as medicinal products and processes for preparing them” (Warner-Lambert LLC, priority 2000, dated 2005).

Legend:
PDE4 = assay: Inhibition of PDE4 (cytosolic enzyme preparation from U937 line), compared with rolipram; assay type: biochemical, human; details: PDE4 enzyme preparation obtained from the U937 line
production of TNFα = assay: in vivo TNFα model in Wistar rats (LPS-induced); details: oral administration 30 min before i.p. LPS; plasma 90 min after LPS; male Wistar rats
From the text: TNFα is a cytokine which plays a central role in the mechanisms of inflammation. Its production can be induced by an injection of lipopolysaccharide (LPS). It has been shown that the increase in intracellular cAMP, produced in particular by PDE4 inhibitors, decreases the production of TNFα in in vitro and in vivo models. It is thus a matter here of quantifying in vivo the anti-inflammatory potential of the compounds of the invention, administered orally (p.o.) by measuring the inhibition of the production of TNFα in the plasma of rats, these rats having received an intraperitoneal (i.p.) injection of lipopolysaccharide (LPS). The treatment with the compounds of the invention or the vehicle are [sic] administered orally to male Wistar rats, 30 min before the injection of LPS. The rats are sacrificed 90 min after the stimulation with LPS, the blood is collected onto EDTA and the TNFα concentration is measured in each plasma sample. […] References • Chen, Y. L., Le Vraux, V., Giroud, J. P. and Chauvelot-Moachon L. (1994). Anti-tumor necrosis factor properties of non-peptide drugs in acute-phase responses. […] Int. J. Immunopharmacol., 16 (10), 805-816. Model of Eosinophilia in Rats

SMILES	IC50 (PDE4) [nM]	melting point [°C]	inhibition of the production of TNFα in the plasma of rats (production of TNFα)
CCn1nc(C)c2c1C(=O)NCC(C(C)(C)C)N2 (centres unmarked) [5-tert-Butyl-1-ethyl-3-methyl-4,5,6,7-tetrahydro-1H-pyrazolo[4,3-e][1,4]diazepin-8-one]			excellent activity
CCn1nc(C)c2c1C(=O)NCC(C(C)(C)C)=N2 [Example 33, 5-tert-Butyl-1-ethyl-3-methyl-6,7-dihydro-1H-pyrazolo[4,3-e][1,4]diazepin-8-one]	110	120	
CCn1nc(C(C)C)c2c1C(=O)NCC(c1ccc(C)cc1)=N2 [Example 36, 1-Ethyl-3-isopropyl-5-p-tolyl-6,7-dihydro-1H-pyrazolo[4,3-e][1,4]diazepin-8-one]	0.39		excellent activity
CCn1nc(C(C)C)c2c1C(=O)NCC(c1ccc(C#N)cc1)=N2 [Example 37, 4-(1-Ethyl-3-isopropyl-8-oxo-1,6,7,8-tetrahydro-pyrazolo[4,3-e][1,4]diazepin-5-yl)benzonitrile]	0.97		excellent activity
CCn1nc(C(C)C)c2c1C(=O)NCC(c1ccc(OC)cc1OC)=N2 [Example 39, 5-(2,4-Dimethoxyphenyl)-1-ethyl-3-isopropyl-6,7-dihydro-1H-pyrazolo[4,3-e][1,4]diazepin-8-one]	9.1		excellent activity
CCCCc1nn(CC)c2c1N=C(c1ccccc1)CNC2=S [Example 52, 3-Butyl-1-ethyl-5-phenyl-6,7-dihydro-1H-pyrazolo[4,3-e][1,4]diazepin-8-thione]	0.65	151.5	
CCn1nc(C)c2c1C(=O)NCC(c1cccnc1)=N2 [Example 53, 1-Ethyl-3-methyl-5-pyrid-3-yl-6,7-dihydro-1H-pyrazolo[4,3-e][1,4]diazepin-8-one]	260	178	
CCn1nc(C)c2c1C(=O)NCC(c1ccccn1)=N2 [Example 54, 1-Ethyl-3-methyl-5-pyrid-2-yl-6,7-dihydro-1H-pyrazolo[4,3-e][1,4]diazepin-8-one]	240	153	
CCn1nc(C(C)(C)C)c2c1C(=NC#N)NCC(c1ccccc1)=N2 [Example 57, 3-tert-Butyl-1-ethyl-5-phenyl-6,7-dihydro-1H-pyrazolo[4,3-e][1,4]diazepin-8-ylidene-cyanamide]	0.13	250	
CCn1nc(C)c2c1C(=O)NCC(c1ccc(C(F)(F)F)cc1)=N2 [Example 60, 1-Ethyl-3-methyl-5-(4-trifluoromethylphenyl)-6,7-dihydro-1H-pyrazolo[4,3-e][1,4]diazepin-8-one]	580	195	
CCCn1nc(C(C)C)c2c1C(=S)NCC(c1ccc(C)cc1)=N2 [Example 63, 3-Isopropyl-1-propyl-5-p-tolyl-6,7-dihydro-1H-pyrazolo[4,3-e][1,4]diazepin-8-thione]	5	162.9	
CCCn1nc(C(C)(C)C)c2c1C(=S)NCC(C(C)(C)C)=N2 [Example 64, 3,5-Di-tert-butyl-1-propyl-6,7-dihydro-1H-pyrazolo[4,3-e][1,4]diazepin-8-thione]	4.6	205	
CCn1nc(C(C)C)c2c1C(=S)NCC(c1ccc(C)cc1)=N2 [Example 66, 1-Ethyl-3-isopropyl-5-p-tolyl-6,7-dihydro-1H-pyrazolo[4,3-e][1,4]diazepin-8-thione]	0.63	178	
CCn1nc(C(C)C)c2c1C(=S)NCC(C(C)(C)C)=N2 [Example 67, 5-tert-Butyl-1-ethyl-3-isopropyl-6,7-dihydro-1H-pyrazolo[4,3-e][1,4]diazepin-8-thione]	1	218	
CCn1nc(C(C)C)c2c1C(=NC#N)NCC(c1ccc(C)cc1)=N2 [Example 81, 1-Ethyl-3-isopropyl-5-p-tolyl-6,7-dihydro-1H-pyrazolo-[4,3-e][1,4]diazepin-8-ylidenecyanamide]	0.54	245	
CCn1nc(C(C)C)c2c1C(=O)NCC(c1ccc(OC)cc1)=N2 [Example 82, 1-Ethyl-3-isopropyl-5-(4-methoxyphenyl)-6,7-dihydro-1H-pyrazolo[4,3-e][1,4]diazepin-8-one]	62	150	
CCn1nc(C)c2c1C(=NC#N)NCC(c1ccc(OC)cc1)=N2 [Example 84, 1-Ethyl-3-methyl-5-(4-methoxyphenyl)-6,7-dihydro-1H-pyrazolo[4,3-e][1,4]diazepin-8-ylidenecyanamide]	60	265	
CCCn1nc(C(C)(C)C)c2c1C(=O)NCC(c1ccc(OC)cc1)=N2 [Example 87, 3-tert-Butyl-5-(4-methoxyphenyl)-1-propyl-6,7-dihydro-1H-pyrazolo[4,3-e][1,4]diazepin-8-one]	41	167	
CCn1nc(C)c2c1C(=NC#N)NCC(c1ccc(O)cc1)=N2 [Example 88, 1-Ethyl-3-methyl-5-(4-hydroxyphenyl)-6,7-dihydro-1H-pyrazolo[4,3-e][1,4]diazepin-8-ylidenecyanamide]	2.1	300	
CCn1nc(C)c2c1C(=O)NCC(c1cc(OC)c(OC)c(OC)c1)=N2 [Example 91, 1-Ethyl-3-methyl-5-(3,4,5-trimethoxyphenyl)-6,7-dihydro-1H-pyrazolo[4,3-e][1,4]diazepin-8-one]	900	208	
CCn1nc(C)c2c1C(=O)NCC(c1cccc(O)c1)=N2 [Example 92, 1-Ethyl-5-(3-hydroxyphenyl)-3-methyl-6,7-dihydro-1H-pyrazolo[4,3-e][1,4]diazepin-8-one]	92	204	
CCn1nc(C(C)(C)C)c2c1C(=O)NCC(c1ccc(O)cc1)=N2 [Example 96, 3-tert-Butyl-1-ethyl-5-(4-hydroxyphenyl)-6,7-dihydro-1H-pyrazolo[4,3-e][1,4]diazepin-8-one]	4.9	264	

More lines, in order of falling IC50 (PDE4), values ahead:

IC50 (PDE4) [nM]	melting point [°C]	SMILES	inhibition of the production of TNFα in the plasma of rats (production of TNFα)
310	180	CCn1nc(C(C)(C)C)c2c1C(=O)NCC(c1ccc(OC)cc1)=N2 [Example 86, 3-tert-Butyl-1-ethyl-5-(4-methoxyphenyl)-6,7-dihydro-1H-pyrazolo[4,3-e][1,4]diazepin-8-one]	
200	142	CCCn1nc(C(C)C)c2c1C(=O)NCC(c1ccc(OC)cc1)=N2 [Example 85, 3-Isopropyl-5-(4-methoxyphenyl)-1-propyl-6,7-dihydro-1H-pyrazolo[4,3-e][1,4]diazepin-8-one]	
15	230	CCCn1nc(C(C)C)c2c1C(=O)NCC(c1ccc(O)cc1)=N2 [Example 95, 5-(4-Hydroxyphenyl)-3-isopropyl-1-propyl-6,7-dihydro-1H-pyrazolo[4,3-e][1,4]diazepin-8-one]	
11		CCCn1nc(C(C)C)c2c1C(=O)NCC(c1ccc(C)cc1)=N2 [Example 41, 3-Isopropyl-1-propyl-5-p-tolyl-6,7-dihydro-1H-pyrazolo[4,3-e][1,4]diazepin-8-one]	excellent activity
8.2		CCCn1nc(C(C)C)c2c1C(=O)NCC(C(C)(C)C)=N2 [Example 40, 5-tert-Butyl-3-isopropyl-1-propyl-6,7-dihydro-1H-pyrazolo[4,3-e][1,4]diazepin-8-one]	excellent activity
7.4	220	CCn1nc(C)c2c1C(=O)NCC(c1ccccc1O)=N2 [Example 93, 1-Ethyl-5-(2-hydroxyphenyl)-3-methyl-6,7-dihydro-1H-pyrazolo[4,3-e][1,4]diazepin-8-one]	
6.2		CCC(C)c1nn(CC)c2c1N=C(c1ccccc1)CNC2=O (racemic) [Example 68, (±)3-sec-Butyl-1-ethyl-5-phenyl-6,7-dihydro-1H-pyrazolo[4,3-e][1,4]diazepin-8-one]	excellent activity
2.1	230	CCn1nc(C(C)C)c2c1C(=O)NCC(c1ccc(O)cc1)=N2 [Example 94, 1-Ethyl-5-(4-hydroxyphenyl)-3-isopropyl-6,7-dihydro-1H-pyrazolo[4,3-e][1,4]diazepin-8-one]	
1.5	165	CCCn1nc(C(C)C)c2c1C(=S)NCC(C(C)(C)C)=N2 [Example 65, 5-tert-Butyl-3-isopropyl-1-propyl-6,7-dihydro-1H-pyrazolo[4,3-e][1,4]diazepin-8-thione]	
0.7		CCn1nc(C(C)C)c2c1C(=O)NCC(C(C)(C)C)=N2 [Example 35, 5-tert-Butyl-1-ethyl-3-isopropyl-6,7-dihydro-1H-pyrazolo[4,3-e][1,4]diazepin-8-one]	excellent activity
0.22	243	CCn1nc(C(C)C)c2c1C(=NC#N)NCC(C(C)(C)C)=N2 [Example 80, 5-tert-Butyl-1-ethyl-3-isopropyl-6,7-dihydro-1H-pyrazolo-[4,3-e][1,4]diazepin-8-ylidenecyanamide]	
